Here are results for 21 compounds from paper PMC10249623 (Environmental Science & Technology, 2023).

Read-outs that look alike come from different tables or passages of the source. Marks after values point to notes of the source that are not given here.

Data set [1] in a line: Direct measurement of Kaw using the standard VPR-HS method. In kind it is physicochemical. To be noted: measured by the VPR-HS method in this study, 25 °C. The text has this: Kaw values for five PFAS were directly measured using a standard VPR-HS method, as in the literature.[7],[8] The experimental procedure is similar to what has been described previously for KHxd/air([21]) and is summarized in SI-3.

Data set [2] in a line: Hexadecane/water partition coefficient, modified VPR-HS method. To be noted: 25 °C. In kind it is physicochemical.
Protocol: KHxd/w was also measured with a modified version of the VPR-HS method; 20 mL headspace vials were filled with water and hexadecane with different volume ratios. The total liquid volume was always 20 mL. All vials received the same amount of the target compound. After equilibration at 25 °C, the headspace was injected into the GC/MS. […] Here, response linearity as well as no significant mass of the compound in the headspace and any other interface (e.g., vial wall, hexadecane/water interface, septum) was assumed. As α, m, and Vtot (=20 mL) are constant for a given compound, KHxd/w can be fitted on the data of PA vs VHxd. Theoretically, KHxd/w could be determined with a minimum of two VHxd conditions (e.g., 0 and 20 mL), whereas at least four VHxd values were prepared in this work.
A short description of data set [3]: Air/water partition coefficient via hexadecane/air/water thermodynamic cycle (eq 1). Format: physicochemical. The note with it: for log Kaw eq 1: 25 °C, KHxd/w divided by KHxd/air.
Protocol: The objectives of this study are to obtain new experimental data for Kaw at 25 °C for a series of neutral PFAS and to evaluate Kaw prediction models. […] To circumvent the difficulty associated with direct measurement of Kaw, we determined Kaw indirectly by measuring the hexadecane/water partition coefficient (KHxd/w) and applying the hexadecane/air/water thermodynamic cycle: [drawing 1] 1 where KHxd/air is the hexadecane/air partition coefficient. KHxd/w can be measured more reliably than Kaw because gas phase quantification is not needed and hexadecane has a larger solubilization capacity than water, which minimizes the problem of third-phase sorption. […] The new Kaw data for 21 PFAS were compared to predictions by four models that are often used in environmental risk assessments.
A short description of data set [4]: Hexadecane/water partition coefficient, batch partition method. The note with it: for log KHxd/w batch partition method mean: 25 °C, n = 5; for log KHxd/w with pure water lower than with 1 mM HCl solution by: preliminary experiments, pure water vs 1 mM HCl. In kind it is physicochemical.
The nature of data set [5]: Hexadecane/water partition coefficient, shared-headspace method. Format: physicochemical. To be noted: for log KHxd/w shared-headspace method mean: 25 °C, n = 5. As for the experimental part: The method concept is based on the existing publications that used a shared-headspace system for salting-out experiments[26] and ecotoxicity tests.[27],[28] Hexadecane solution of PFAS was placed in a 350 μL insert hosted by a 1.5 mL GC vial. This small vial was put in a 10 mL headspace vial that contained 1 mL of water. The 10 mL vial was closed with a PTFE-lined septum and gently shaken at 25 °C for 24 h. During this time, the compound dissolved in hexadecane was partially transferred to water via the headspace until a three-phase partition equilibrium was reached between hexadecane, air, and water. Water was then sampled and immediately extracted with n-hexane for GC/MS analysis. The hexadecane phase was also analyzed, which confirmed 85–100% mass conservation (Table S3). KHxd/w was obtained from the measured concentration in water, as in the batch partition method. […] The shared-headspace method is useful for compounds with sufficient volatility (relatively high Kaw, low KHxd/air) and hydrophobicity (relatively high KHxd/w), as these properties ensure an efficient transfer from hexadecane to water via air and negligible concentration depletion in hexadecane. Therefore, nine PFAS that meet this requirement were measured by this method, while all eight sulfonamides and four short-chain FTOHs were not.
SI-1 Extended descriptions for experimental methods
Pure PFAS were dissolved in hexadecane either directly or using acetone as carrier solvent. Up to three PFAS were mixed in hexadecane and investigated simultaneously. The PFAS concentration in hexadecane was 0.1–2000 mg/L, depending on the expected KHxd/w and the sensitivity of the quantification method. The acetone content in hexadecane was up to 0.3% (v/v). This acetone should have largely partitioned into water during the partition experiment, where the final concentration in water was estimated to be < 0.3% (v/v). We assumed that this concentration of acetone in water does not have a significant influence on partition coefficients of PFAS. […]
The water phase was analyzed directly by liquid chromatography/mass spectrometry (LC/MS) (for PFBSA, PFHxSA, MeFBSA, MeFHxSA, MeFBSE), diluted with acetonitrile and analyzed with LC/MS (for PFOSA EtFHxSA, EtFHxSE), or liquid-liquid-extracted with n-hexane and analyzed by gas chromatography/mass spectrometry (GC/MS) (for all others). The hexadecane phase was back-extracted with water (for PFBSA, PFHxSA) or with 0.1 mM NaOH water (for PFOSA) and measured by LC/MS, or it was diluted with n-hexane by a factor of 100–500 and analyzed by GC/MS (for all others). […]
The 95% confidence interval (CI) of the mean (x) was calculated with the formula, x ± 2.78 SD/√5, where SD is the standard deviation, based on the t-distribution and n = 5. […]
PFHxSA, PFOSA, MeFBSA, MeFHxSA, and EtFHxSA were performed using 1 mM HCl aqueous solution […]
A shared headspace method was used to measure KHxd/w for nine PFAS. In this method, hexadecane solution of PFAS was prepared as described above and 300 μL was placed in a 350-μL glass insert

The conditions of data set [6]: cited from earlier work.
Where [7] appears, read: 1 mM HCl was used instead of pure water.

With `OCC(F)(F)C(F)(F)C(F)(F)F` [3:1 FTOH, 1H,1H-perfluorobutan-1-ol], the “log Kaw VPR-HS” value in data set [1] was “–2.03 ^d”.

With `OCCCC(F)(F)C(F)(F)C(F)(F)F` [3:3 FTOH, 3-(perfluoropropyl)propan-1-ol], the “log KHxd/w modified VPR-HS method mean” value in data set [2] is given as 0.32. In addition, the “log Kaw eq 1” value in data set [3] is listed as “–2.17”. Moreover, the “log KHxd/w batch partition method mean” value in data set [4] (pure water) is given as 0.52. Further, the “log Kaw VPR-HS” value in data set [1] is given as “–2.04 ^d”.

For `FC(F)(F)C(F)(F)C(F)(F)C(F)(F)CCI` [4:2 FTI, 1H,1H,2H,2H-perfluorohexyl iodide], in data set [5], the “log KHxd/w shared-headspace method mean” value was 4.93. Further, the “log Kaw eq 1” value in data set [3] worked out at 1.60.

Turning to `C=C(C)C(=O)OCCC(F)(F)C(F)(F)C(F)(F)C(F)(F)F` [4:2 FTMAC, 1H,1H,2H,2H-perfluorohexyl methacrylate], the “log KHxd/w shared-headspace method mean” value in data set [5] worked out at 4.65. Further, the “log Kaw eq 1” value in data set [3] is given as 0.62. Also, the “log Kaw VPR-HS” value in data set [1] was “–0.14 ^d”.

Consider `OCCC(F)(F)C(F)(F)C(F)(F)C(F)(F)F` [4:2 FTOH, 1H,1H,2H,2H-perfluorohexan-1-ol], for which the “log KHxd/w modified VPR-HS method mean” value in data set [2] was found to be 0.75. Further, the “log Kaw VPR-HS or VP/S” value in data set [6] (23 or 24 °C ref 12) is −1.52; in data set [6] (literature value ref 7), −1.30; in data set [6] (literature value ref 8), −1.63; in data set [6] (literature value ref 9) it was −1.21. Also, the “log Kaw eq 1” value in data set [3] was “–1.57”. For the same compound, the “log KHxd/w batch partition method mean” value in data set [4] (pure water) was determined as 0.79. Moreover, the “log Kaw VPR-HS” value in data set [1] is “–1.56”.

As for `OCCCCC(F)(F)C(F)(F)C(F)(F)C(F)(F)F` [4:4 FTOH, 4-(perfluorobutyl)butan-1-ol], in data set [2], the “log KHxd/w modified VPR-HS method mean” value is listed as 1.43. Further, the “log Kaw eq 1” value in data set [3] is recorded as “–1.97”. Further, in data set [4] (pure water), the “log KHxd/w batch partition method mean” value was determined as 1.60. In data set [1], the “log Kaw VPR-HS” value was “–1.28 ^d”.

For `CC(O)C(F)(F)C(F)(F)C(F)(F)C(F)(F)C(F)(F)F` (stereo not shown) [5:2s FTOH, 1H,1H,1H,2H-perfluoroheptan-2-ol], the “log KHxd/w shared-headspace method mean” value in data set [5] is 2.04. Also, the “log KHxd/w modified VPR-HS method mean” value in data set [2] was 1.55. The “log Kaw eq 1” value in data set [3] was “–0.15”. The “log KHxd/w batch partition method mean” value in data set [4] (pure water) stood at 2.00.

As for `FC(F)(F)C(F)(F)C(F)(F)C(F)(F)C(F)(F)C(F)(F)CI` [6:1 FTI, 1H,1H-perfluoroheptyl iodide], the “log KHxd/w shared-headspace method mean” value in data set [5] is on record as 5.66. The “log Kaw eq 1” value in data set [3] stood at 2.28.

`FC(F)C(F)(F)C(F)(F)C(F)(F)C(F)(F)C(F)(F)CI` [6:1 FTI-7H, 1H,1H,7H-perfluoroheptyl iodide]: in data set [5], the “log KHxd/w shared-headspace method mean” value is given as 4.62. In addition, the “log KHxd/w lower than that of 6:1 FTI by” value in data set [5] (difference to 6:1 FTI) is listed as 1.0 log unit. Further, the “log Kaw eq 1” value in data set [3] is 0.70. Also, in data set [3] (difference to 6:1 FTI), the “log Kaw lower than that of 6:1 FTI by” value amounted to 1.6 log units.

For the compound `C=CC(=O)OCCC(F)(F)C(F)(F)C(F)(F)C(F)(F)C(F)(F)C(F)(F)F` [6:2 FTAC, 1H,1H,2H,2H-perfluorooctyl acrylate], the “log KHxd/w shared-headspace method mean” value in data set [5] was 5.43. The “log Kaw eq 1” value in data set [3] was 1.27.

Regarding `OCCC(F)(F)C(F)(F)C(F)(F)C(F)(F)C(F)(F)C(F)(F)F` [6:2 FTOH, 1H,1H,2H,2H-perfluorooctan-1-ol], the “log KHxd/w shared-headspace method mean” value in data set [5] was determined as 2.51. The “log Kaw VPR-HS or VP/S” value in data set [6] (23 or 24 °C ref 12) is reported as −0.44; in data set [6] (literature value ref 7), “–1.47”; in data set [6] (literature value ref 8) it was −0.56; in data set [6] (literature value ref 9), 0.37. The “log Kaw eq 1” value in data set [3] is “–0.64”. For the same compound, in data set [4] (pure water), the “log KHxd/w batch partition method mean” value was found to be 2.50.

With `OCC(F)(F)C(F)(F)C(F)(F)C(F)(F)C(F)(F)C(F)(F)C(F)(F)F` [7:1 FTOH, 1H,1H-perfluorooctan-1-ol], the “log KHxd/w shared-headspace method mean” value in data set [5] is listed as 2.70. For the same compound, the “log Kaw eq 1” value in data set [3] is given as “–0.26”.

In the case of `OCCC(F)(F)C(F)(F)C(F)(F)C(F)(F)C(F)(F)C(F)(F)C(F)(F)C(F)(F)F` [8:2 FTOH, 1H,1H,2H,2H-perfluorodecan-1-ol], in data set [5], the “log KHxd/w shared-headspace method mean” value is 3.75. Moreover, the “log Kaw VPR-HS or VP/S” value in data set [6] (23 or 24 °C ref 12) is on record as 0.96; in data set [6] (literature value ref 7), “–1.82”; in data set [6] (literature value ref 8) it was 0.58; in data set [6] (literature value ref 9), 0.31. Moreover, the “log Kaw eq 1” value in data set [3] stood at 0.11.

For `CCNS(=O)(=O)C(F)(F)C(F)(F)C(F)(F)C(F)(F)C(F)(F)C(F)(F)F` [EtFHxSA, N-ethyl perfluorohexane sulfonamide], the “log Kaw eq 1” value in data set [3] is listed as “–1.58”. Also, the “log KHxd/w batch partition method mean” value in data set [4] (setting [7]) is reported as 2.95 ^c.

On to `CCN(CCO)S(=O)(=O)C(F)(F)C(F)(F)C(F)(F)C(F)(F)C(F)(F)C(F)(F)F` [EtFHxSE, N-ethyl perfluorohexane sulfonamidoethanol], for which the “log Kaw eq 1” value in data set [3] is listed as “–3.02”. In addition, in data set [4] (pure water), the “log KHxd/w batch partition method mean” value was 2.76.

Consider `CNS(=O)(=O)C(F)(F)C(F)(F)C(F)(F)C(F)(F)F` [MeFBSA, N-methyl perfluorobutane sulfonamide], for which the “log Kaw eq 1” value in data set [3] is listed as “–2.85”. In data set [4] (setting [7]), the “log KHxd/w batch partition method mean” value is 0.82 ^c.

For the compound `CN(CCO)S(=O)(=O)C(F)(F)C(F)(F)C(F)(F)C(F)(F)F` [MeFBSE, N-methyl perfluorobutane sulfonamidoethanol], the “log Kaw eq 1” value in data set [3] is “–4.35”. In data set [4] (pure water), the “log KHxd/w batch partition method mean” value was 0.49.

For `CNS(=O)(=O)C(F)(F)C(F)(F)C(F)(F)C(F)(F)C(F)(F)C(F)(F)F` [MeFHxSA, N-methyl perfluorohexane sulfonamide], the “log Kaw eq 1” value in data set [3] is given as “–2.01”. Further, the “log KHxd/w batch partition method mean” value in data set [4] (setting [7]) was 2.25 ^c.

As for `NS(=O)(=O)C(F)(F)C(F)(F)C(F)(F)C(F)(F)F` [PFBSA, perfluorobutane sulfonamide], in data set [3], the “log Kaw eq 1” value is recorded as “–4.89”. The “log KHxd/w batch partition method mean” value in data set [4] (setting [7]) is recorded as “–1.15 ^c”. For the same compound, the “log KHxd/w with pure water lower than with 1 mM HCl solution by” value in data set [4] is given as 0.5–0.9 log units.

As to `NS(=O)(=O)C(F)(F)C(F)(F)C(F)(F)C(F)(F)C(F)(F)C(F)(F)F` [PFHxSA, perfluorohexane sulfonamide], the “log Kaw eq 1” value in data set [3] is listed as “–3.94”. Also, in data set [4] (setting [7]), the “log KHxd/w batch partition method mean” value is 0.39 ^c. The “log KHxd/w with pure water lower than with 1 mM HCl solution by” value in data set [4] is listed as 0.5–0.9 log units.

Take `NS(=O)(=O)C(F)(F)C(F)(F)C(F)(F)C(F)(F)C(F)(F)C(F)(F)C(F)(F)C(F)(F)F` [PFOSA, perfluorooctane sulfonamide]: in data set [3], the “log Kaw eq 1” value is “–3.04”. Moreover, in data set [4] (setting [7]), the “log KHxd/w batch partition method mean” value is on record as 1.80 ^c.
